The test system of one data set is UMUC-3 orthotopic tumors. The data set can be described thus: UMUC-3 orthotopic xenograft tumor growth in NOD-scid mice. The format is in vivo. The following applies: UMUC-3 in NODscid mice; doxycycline plus Nu7441. How it is done: FIG. 7 is a schematic drawing showing an in vivo experiment comparing tumor growth between UMUC-3 cells expressing non-targeting gRNAs (left) and UMUC-3 cells expressing CRJ-targeting gRNAs (right). These cell lines are engineered to express luciferase for bioluminescent monitoring. Each mouse group represents 10 NODscid mice. […] Accordingly, further experiments are conducted to grow these cell lines as orthotopic xenografts in NOD-scid mice and to monitor tumor growth (e.g., using bioluminescence) in vivo as the CRISPR reagents are induced by doxycycline (e.g., provided in food and/or water). UMUC-3 cells are grown as orthotopic tumors in NOD-scid mice, animals are given doxycycline to induce Fok1-dCas9 and the two pairs of gRNAs in the cancer cells, and the effects on tumor growth are assessed by bioluminescence. […] The other cell line expresses CRJ-targeting gRNAs following doxycycline exposure. Experiments are conducted with or without a DNA-PK inhibitor (e.g., Nu7441) and with and without doxycycline in the drinking water and/or in the food. 10 animals are used per group with 8 groups for a total of 80 animals (FIG. 7).

Data set [1] deals with UMUC-3 bladder cancer cells. The data set can be described thus: Clonogenic survival assay in UMUC-3 bladder cancer cells. The format is cell-based, human. The following applies: doxycycline induction plus Nu7441. An excerpt:
FIG. 6C is a series of bar plots showing data collected from an […] clonogenic survival assay in the UMUC-3 bladder cells shown schematically in FIG. 6B. […] Further, treatments with the DNA-PK inhibitor Nu7441 improved the toxicity of the CRJ-targeting gRNAs (bottom row). The data are expressed as the mean and standard deviation of three biological replicates. Numbers (3a & X; 7 & 2; 7 & 4; 19 & 2; and 19 & 4) indicate the combinations of gRNA used for the experiment.
First, CRJs were identified in bladder cancer cells (see, e.g., FIG. 6A). Using sequence information from the CRJs identified in bladder cancer cells, gRNA were designed and UMUC-3 (ATCC Accession CRL-1749) cell lines were produced comprising doxycycline-inducible expression of Fok1-dCas9 and the CRJ-targeting gRNAs. gRNA sequences are provided in Table 2.
Six UMUC-3 bladder cancer sublines were generated—Two control cell lines were produced, one expressing no gRNAs and one expressing 2 pairs of non-targeting gRNAs; four experimental cell lines were produced expressing Fok1-dCas9-GFP and two pairs of CRJ-targeting gRNAs under the regulation of doxycycline (see, e.g., FIG. 6B). CRJ-specific DSBs were induced in the cells (e.g., using doxycycline) and toxicity was monitored to determine if interfering with DSB repair leads to increased killing of bladder cancer cells (see, e.g., FIG. 6C, top row). […]

The subject of a further data set is HCT116 cells. Description: Clonogenic survival of HCT116 cells with Dox-inducible dCas9-Fok1-GFP and gRNA pairs. The format is cell-based. As to conditions: Nu7441 200 nM, 12 days, no gRNA. How it is done:
Cells were plated and treated with different concentrations of Dox for 12 days. Cells were then fixed and stained, colonies were counted, and colony numbers were reported as a percentage of control cells not treated with Dox. […] Cells were plated and treated with different concentrations of Dox for 12 days. Cells were then fixed and stained and colonies counted and expressed as a percentage of control cells not treated with Dox. In FIG. 5A and FIG. 5B, the gRNA pairs target two CRJs on chromosome 3 (3ab and 3cd), one on chromosome 5 (5ab), and one on the X chromosome (xab).
During the development of embodiments of the technology provided herein, experiments were conducted to evaluate use of a dCas9-Fok1 fusion protein and to produce a dCas9-Fok1 fusion protein further comprising a GFP domain to provide a tool to detect expression in cells. Furthermore, the dCas9-Fok1-GFP fusion and the gRNA genes were placed under the regulation of a tet-inducible promoter for performing experiments to establish the cells in culture or as xenografts and then induce expression by addition of doxycycline (Dox). […]
HCT116 cells with stable expression of dCas9-Fok1-GFP, 3ab3cd/Fok1-dcas9-GFP, 5ab3cd/Fok1-GFP, and 3abxab/dCas9-GFP were maintained in DMEM containing 10% FBS. […] Clonogenic survival colonies with 50 cells or more were counted.

The next data set deals with HCT116 xenografts. Description: HCT116 xenograft tumor growth in mice. The format is in vivo. As to conditions: water with Dox and Nu7441. How it is done: In these experiments, HCT116 cells are injected into mice and each group is split into three treatment groups that receive ether regular water, water with Dox, or water with Dox and Nu7441.
Experiments are conducted in which three of the HCT116 cell lines with dox-inducible expression of dCas9-Fok1-GFP with and without CRJ-targeting gRNAs are used to form xenografts in the flank of mice. In these experiments, one million HCT116 cells in a 100 μl Matrigel suspension are injected s.c. into the hind leg of the mice (a total of 54 NOD/SCID or athymic BALB/C, 10-12 weeks old). When tumors reach sizes of 50-150 mm^3, each group is split into three groups (see, e.g., FIG. 2) where they receive ether regular water, water with Dox, or water with Dox and Nu7441. Tumor measurements are taken daily and mouse weights are recorded 3 times weekly. As the control tumors reach the predetermined tumor size limit, animals are euthanized. At this time, the tumors are removed, weighed, and documented (e.g., using digital imaging) and used for downstream analyses. Downstream analyses include measuring expression of dCas9-Fok1-GFP (green fluorescence) and γH2AX ChIP-PCR with primers for sequences near the CRJ and sequences far away as a control.

Each structure is given as a SMILES string.

With `O=c1cc(N2CCOCC2)oc2c(-c3cccc4c3sc3ccccc34)cccc12` [Nu7441], the “tumor growth inhibition with Nu7441” value in the data set with UMUC-3 orthotopic tumors was “augments tumor growth inhibition”. The “toxicity / survival with DNA-PK inhibitor Nu7441” value in data set [1] is “augmented this effect”. In addition, in the data set on HCT116 cells, the “effect of Nu7441 on clonogenicity of cells expressing dCas9-Fok1-GFP alone” value is “did not affect clonogenicity”. In the data set with HCT116 xenografts, the “suppression of tumor growth with Nu7441” value was “Suppression of tumor growth is augmented”.

These data come from patent US20220220472A1, “TARGETED THERAPY” (The Regents of the University of Michigan, priority 2019, published 2022).
